In PubChem BioAssay (NCI):
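Growth conditions: 96-well plates. Treatment: test compound, 48 hours, 5 concentrations. Analysis: linear interpolation between bracketing concentrations; unreached endpoints set to highest concentration. TGI is the concentration that stops growth completely.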

Assays:
Experiment in all cases: NCI anticancer screen, dose series, 48 h
OVCAR-3 ovarian = test system: OVCAR-3 ovarian
SF-295 CNS = test system: SF-295 CNS
COLO 205 colon = test system: COLO 205 colon
SK-MEL-2 melanoma = test system: SK-MEL-2 melanoma
SK-OV-3 ovarian = test system: SK-OV-3 ovarian
NCI-H23 lung = test system: NCI-H23 lung
U251 CNS = test system: U251 CNS
T-47D breast = test system: T-47D breast
OVCAR-8 ovarian = test system: OVCAR-8 ovarian
HS 578T breast = test system: HS 578T breast
SNB-75 CNS = test system: SNB-75 CNS
TK-10 renal = test system: TK-10 renal
SNB-19 CNS = test system: SNB-19 CNS
SF-539 CNS = test system: SF-539 CNS
K-562 leukemia = test system: K-562 leukemia
MCF7 breast = test system: MCF7 breast
ACHN renal = test system: ACHN renal
UACC-62 melanoma = test system: UACC-62 melanoma
SR leukemia = test system: SR leukemia

| Compound | TGI (OVCAR-3 ovarian) [µM] | TGI (SF-295 CNS) [µM] | TGI (COLO 205 colon) [µM] | TGI (SK-MEL-2 melanoma) [µM] | TGI (SK-OV-3 ovarian) [µM] | TGI (NCI-H23 lung) [µM] | TGI (U251 CNS) [µM] | TGI (T-47D breast) [µM] | TGI (OVCAR-8 ovarian) [µM] | TGI (HS 578T breast) [µM] | TGI (SNB-75 CNS) [µM] | TGI (TK-10 renal) [µM] | TGI (SNB-19 CNS) [µM] | TGI (SF-539 CNS) [µM] | TGI (K-562 leukemia) [µM] | TGI (MCF7 breast) [µM] | TGI (ACHN renal) [µM] | TGI (UACC-62 melanoma) [µM] | TGI (SR leukemia) [µM] |
| --- | --- | --- | --- | --- | --- | --- | --- | --- | --- | --- | --- | --- | --- | --- | --- | --- | --- | --- | --- |
| O=C1NC(N2CCCCC2)=N/C1=C\c1ccccc1O | > 100 | > 100 | > 100 | > 100 | > 100 | > 100 | > 100 | > 100 | > 100 | > 100 | > 100 | > 100 | > 100 | > 100 | > 100 | > 100 | > 100 | – | – |
| Oc1ccccc1C1=NOC(c2ccc(C(F)(F)F)cc2)C1 (configuration not stated) | > 50 | > 50 | > 50 | > 50 | > 50 | > 50 | > 50 | > 38.1 | > 50 | > 50 | > 50 | > 16.2 | > 50 | > 50 | > 50 | > 50 | > 50 | > 50 | – |
| CC(C)(C)OC(=O)C1=C2C=C(O)C=CC2(C)N(Cc2ccccc2)C1=N (configuration not stated) | 13.8 | 28.2 | 6.24 | 33.1 | 42.1 | 31.2 | 43.3 | 10.2 | 10.6 | > 91.6 | > 56.7 | 10.2 | 33.8 | 12.7 | > 32.9 | 9.99 | 5.56 | 29 | – |
| Clc1ccc(-c2ccc(-c3nnc(COc4ccc(OCc5nnc(-c6ccc(-c7ccc(Cl)cc7Cl)o6)o5)c(Cl)c4)o3)o2)c(Cl)c1 | > 100 | > 100 | > 100 | > 100 | – | > 100 | > 100 | > 100 | > 100 | > 100 | – | > 100 | > 100 | – | > 100 | > 100 | > 100 | > 100 | 74.8 |
| NC(Cc1ccc(S(=O)(=O)O)cc1)C(=O)NC(Cc1ccc(S(=O)(=O)O)cc1)C(=O)NC(Cc1ccc(S(=O)(=O)O)cc1)C(=O)O (configuration not stated) | > 100 | > 100 | > 100 | > 100 | – | > 100 | > 100 | > 100 | > 100 | > 100 | > 100 | > 100 | – | > 100 | > 100 | > 100 | > 100 | > 100 | – |
| O=[N+]([O-])C(=C1Nc2ccccc2N1)/C(Cl)=C(/Cl)N1CCOCC1 | 96.6 | > 100 | > 100 | > 100 | > 100 | > 100 | > 100 | 51.2 | > 100 | > 100 | > 100 | – | > 100 | > 100 | > 100 | > 100 | > 100 | > 100 | – |
| COC(=O)c1ccccc1/C=C1\Cc2c(C)cc(C)cc2C1=O | > 100 | > 100 | – | > 100 | – | – | > 100 | > 100 | > 100 | > 100 | > 100 | > 100 | > 100 | > 100 | > 100 | > 100 | > 100 | > 100 | > 100 |
| COC1=CC(=O)c2c(c(COP(=O)(N(C)CCBr)N(C)CCBr)cn2C)C1=O | 0.877 | 0.366 | 0.209 | 0.315 | 1.88 | 2.06 | 0.448 | 19 | 0.314 | 2.93 | 0.442 | 0.496 | 3.76 | 0.0678 | – | 0.671 | 0.0728 | 0.272 | – |
| CC(C)(C)OC(=O)c1ccc(NCC2=CC(=O)C=CC2=O)cc1 | 16.1 | 50.5 | 7.21 | 31.8 | 41.6 | 22.2 | 27.1 | – | 26.9 | 46 | 24.3 | 21.3 | 31.4 | 12.7 | > 100 | 12.3 | 22.2 | 26 | > 23.1 |
| CC1(C)C2CC3C4CC5(Nc6ccccc6C5N41)[C@]3(C)CC2=O (some centres not stated) | > 50 | > 50 | > 50 | > 50 | – | > 50 | > 50 | 33.3 | > 50 | > 50 | > 50 | > 50 | – | > 50 | > 50 | > 50 | > 50 | > 50 | > 50 |
| O=C(Cc1nc2ncccc2[nH]c1=O)c1c[nH]c2ccccc12 | 32.5 | 31.9 | 31.2 | 30.8 | 29.8 | 54 | 35.1 | 34.5 | 81.1 | 40.8 | – | 30.4 | 35.7 | 31.5 | 63.2 | 32.3 | 30.1 | 31.2 | 96.2 |
| CCOC(=O)c1nc2ccccc2nc1Oc1cc(OC)c(OC)c(OC)c1 | > 100 | > 100 | > 100 | > 100 | – | > 100 | 99.4 | > 100 | > 100 | > 100 | > 100 | > 100 | > 100 | > 100 | – | > 100 | > 100 | > 100 | > 100 |
| O/N=C(\CC(O)(C(F)(F)F)C(F)(F)F)c1cccc(Cl)c1 | 49.4 | > 100 | > 100 | 63.5 | 58.5 | 49.2 | 49 | 79.7 | > 100 | 53 | 57.6 | 98.8 | – | 85.9 | > 100 | > 100 | 65.9 | > 100 | > 100 |
| C=C1C(=O)OC2CC(=C)C3CC=C(C)C3CC12 (configuration not stated) | 91.9 | > 100 | 41.7 | 26.5 | 80 | – | 29.6 | 37.1 | > 100 | > 100 | – | 34.4 | 54.5 | > 100 | 24.4 | 55.3 | 47.8 | 25.3 | 55.6 |
| COC(=O)C1=C(C(=O)OC)SC(=C2S[C@@H]3[C@@H]4C[C@H]([C@@H]3S2)[C@H]2C(=O)OC(=O)[C@@H]42)S1 | > 100 | > 100 | > 100 | > 100 | – | > 100 | > 100 | > 100 | > 100 | > 100 | – | > 100 | > 100 | > 100 | > 100 | > 100 | > 100 | > 100 | – |
| NC(=O)/C=c1/c2ccccc2n2nc3ccccc3c12 | 49.1 | > 100 | 40.6 | 57.1 | 59.3 | 64.1 | 29.3 | > 100 | 27.4 | 87.6 | – | > 100 | 49.3 | 31.9 | 53.2 | > 100 | 29.1 | 37 | 6.16 |
| N#Cc1c(O)cc(=O)n2c1[nH]c1ccccc12 | > 100 | > 100 | > 100 | > 100 | > 100 | > 100 | > 100 | – | > 100 | > 100 | > 100 | > 100 | > 100 | > 100 | > 100 | > 100 | > 100 | > 100 | > 100 |
| COc1ccc(/C=C2\Sc3nnc(CNc4ccc(Cl)cc4)n3N=C2c2cc(F)c(Cl)cc2Cl)cc1OC | > 100 | > 100 | – | > 100 | > 100 | > 100 | > 100 | > 100 | > 100 | > 100 | – | > 100 | – | > 100 | > 100 | > 100 | > 100 | – | > 100 |
| CCOC(=O)c1c(-c2ccc(Br)cc2)ccn1C | > 10 | > 10 | > 10 | > 10 | > 10 | > 10 | > 10 | > 10 | > 10 | > 10 | > 10 | > 10 | > 10 | > 10 | > 10 | > 10 | > 10 | > 10 | – |
| O=C(O)CNn1c(SCC(=O)O)nnc(/C=C/c2c(O)ccc3ccccc23)c1=O | > 100 | > 100 | > 100 | > 100 | > 100 | 52.6 | > 100 | > 100 | 28.6 | 94.4 | – | – | > 100 | > 100 | 62.7 | > 100 | > 100 | 74.4 | 60 |
| Fc1cccc(Cl)c1C1SCc2nc3cc4ccccc4cc3n21 (configuration not stated) | > 100 | > 100 | > 100 | > 100 | > 100 | > 100 | > 100 | > 100 | > 100 | > 100 | – | > 100 | > 100 | > 100 | > 100 | > 100 | > 100 | > 100 | > 100 |
| COc1cc([C@@]23OC[C@@H]4[C@@H](OC[C@@H]42)c2cc4c(cc23)OCO4)cc(OC)c1OC | – | > 100 | – | 62.8 | – | > 100 | > 74.5 | > 100 | > 100 | 10.5 | > 100 | > 100 | > 100 | > 47.1 | > 100 | > 100 | > 100 | > 100 | > 77 |
| O=C(CN1CCOCC1)c1ccc2c(c1)oc(=O)n2CCN1CCCC1 | > 100 | > 100 | > 100 | > 100 | > 100 | > 100 | > 100 | – | > 100 | > 100 | > 100 | > 100 | > 100 | > 100 | > 100 | > 100 | > 100 | > 100 | > 100 |
| Cc1nn2c(C(=O)N/N=C/c3ccc([N+](=O)[O-])cc3)c(C)nc2s1 | > 100 | > 100 | > 100 | – | 87 | > 100 | 53.5 | > 100 | > 100 | > 100 | > 100 | > 100 | > 100 | > 100 | > 100 | > 100 | > 100 | > 100 | – |
| O=[N+]([O-])/C(C(Cl)=C(Cl)Cl)=C(\Nc1ccccc1)n1nnc2ccccc21 | > 100 | > 100 | > 100 | 75.2 | > 100 | 61.2 | > 100 | > 100 | > 100 | 38.7 | > 100 | – | > 100 | > 100 | > 100 | > 100 | > 100 | > 100 | – |
| Cc1ccc(/C=C2\CCCC(CN(C)C)C2=O)cc1 (configuration not stated) | 3.22 | 31.2 | 3.13 | 15.4 | 26.4 | 4.97 | 26.4 | 3.25 | – | > 100 | 20.3 | 8.26 | 30.1 | 6.61 | > 100 | 1.92 | 7.19 | 5.09 | – |
| CN(C)c1ccc(-c2ccc(N(C)C)c3n[se]nc23)c2n[se]nc12 | > 100 | > 100 | – | > 100 | > 100 | > 100 | > 100 | > 100 | > 100 | > 100 | > 100 | > 100 | – | > 100 | > 100 | > 100 | > 100 | > 100 | > 100 |
